Counter-ions that a name gives are not always drawn.

A word on the LD50: it is the dose at which mortality reaches 50%. As a reminder, the ED50 is the midpoint of the dose-response relation. Higher therefore signals weaker potency.

Series [1] is described as follows: Acute toxicity, 50% lethal dose in mice. The following applies: mouse, in vivo, po; mice (CD1 strain, both sexes), per os; 50% lethal dose calculated graphically. The method, then: The experiments were carried out on mice of the CDl strain, of both sexes, and the 50% lethal doses were calculated graphically.
The subject of series [2] is pain induced, in CDl mice, by the intraperitoneal injection of acetic acid. Briefly: Koster test: pain induced by intraperitoneal injection of acetic acid. In kind it is in vivo. The following applies: Mus musculus, po, per os, AD50 = 50% active dose. An excerpt: (§1) This effect was investigated in accordance with three conventional experimental procedures.
a. Effect against pain induced, in CDl mice, by the intraperitoneal injection of acetic acid, using the method described by Koster and colleagues (Fed. Proc., 1959, 18, 42) and modified by Peterfalvi, Branceni and colleagues, (Med. Pharmacol. exp., 1966, 15, 254).

Another series relates to CD1 mice, tail-pinching. Nature of the series: Haffner tail-pinching test. The following applies: Mus musculus, po, per os, AD50 = 50% active dose. The format is in vivo.
Description: as §1
c. Tail-pinching test on CD1 mice, using the method of Haffner (Deutsch. med. Wachr., 1959, 55, 731).

Series [3] relates to oedema induced by carragenine in SJ rats. Nature of the series: Oedema induced by carragenine (anti-inflammatory effect). In kind it is in vivo. The following applies: Rattus norvegicus, po, per os, AD40 = 40% active dose, read-out: Inflammation induced by carragenine AD40. An excerpt:
The test of oedema induced by carragenine in SJ rats, in accordance with the technique of Winter and colleagues, (Proc. Soc. exp. Biol. Med., 1962, III, 544) was used. The effects of the compounds of the invention are markedly lower than that of the reference product.

The next series is described as follows: Solubility in water. In kind it is physicochemical.

As to `Cc1c(NC(=O)OCCN2CCN(c3cccc(Cl)c3)CC2)c(=O)n(-c2ccccc2)n1C` [SLB-207, 2-(4-m-Chlorophenyl-piperazino)-ethyl N-(2,3-dimethyl-5-oxo-1-phenyl-3Δ-pyrazolin-4-yl)-carbamate], in series [1], the LD50 was 990 mg/kg. In addition, the ED50 was 8 mg/kg in series [2] and 10 mg/kg in the series with CD1 mice, tail-pinching. Moreover, in series [3], the ED40 is 100 mg/kg.
Take `Cc1c(NC(=O)OCCN(C)C)c(=O)n(-c2ccccc2)n1C` [SLB-215, 2-Dimethylamino-ethyl N-(2,3-dimethyl-5-oxo-1-phenyl-3Δ-pyrazolin-4-yl)-carbamate]: the LD50 in series [1] is more than 1000 mg/kg. In series [2], this molecule returned an ED50 of 60 mg/kg. Further, in series [3], the ED40 is more than 100 mg/kg. The solubility in water entry in the series “Solubility in water” was “very soluble in water”.
Regarding `Cc1c(NC(=O)OCCN2CCN(c3cccc(Cl)c3)CC2)c(=O)n(-c2ccccc2)n1C` [2-(4-m-chlorophenyl-piperazino)-ethyl N-(2,3-dimethyl-5-oxo-1-phenyl-3Δ-pyrazolin-4-yl)-carbamate tartrate], the solubility in water result in “Solubility in water” is given as “very soluble in water”.
For the molecule `Cc1c(N(C)C)c(=O)n(-c2ccccc2)n1C` [Aminopyrine, reference compound], the ED50 came to 40 mg/kg in series [2] and 75 mg/kg in the series on CD1 mice, tail-pinching. Further, in series [3], the ED40 stood at 50 mg/kg.
Turning to `Cc1ccc(N2CCN(CCOC(=O)Nc3c(C)n(C)n(-c4ccccc4)c3=O)CC2)cc1` [SLB-209, 2-(4-p-Tolyl-piperazino)-ethyl N-(2,3-dimethyl-5-oxo-1-phenyl-3Δ-pyrazolin-4-yl)-carbamate], in series [1], the LD50 is 410 mg/kg. Besides, the ED50 was found to be 25 mg/kg in series [2] and 15 mg/kg in the series on CD1 mice, tail-pinching. The ED40 in series [3] is more than 100 mg/kg.
For `Cc1c(NC(=O)OCCN2CCN(c3cccc(SC(F)(F)F)c3)CC2)c(=O)n(-c2ccccc2)n1C` [SLB-208, 2-(4-m-Trifluoromethylthiophenyl-piperazino)-ethyl N-(2,3-dimethyl-5-oxo-1-phenyl-3Δ-pyrazolin-4-yl)-carbamate], in series [1], the LD50 is more than 1000 mg/kg. In series [2], this molecule returned an ED50 of 17 mg/kg. In addition, the ED40 in series [3] worked out at 76 mg/kg.
With `Cc1c(NC(=O)OCCN2CCN(c3cccc(C(F)(F)F)c3)CC2)c(=O)n(-c2ccccc2)n1C` [SLB-186, 2-(4-m-Trifluoromethylphenyl-piperazino)-ethyl N-(2,3-dimethyl-5-oxo-1-phenyl-3Δ-pyrazolin-4-yl)-carbamate hydrochloride], the LD50 in series [1] was 2000 mg/kg. The ED50 came out at 8 mg/kg in series [2] and 10 mg/kg with CD1 mice, tail-pinching. Moreover, the ED40 in series [3] was 100 mg/kg.
In the case of `Cc1c(NC(=O)OCCN2CCN(c3ccccc3)CC2)c(=O)n(-c2ccccc2)n1C` [SLB-197, 2-(4-Phenyl-piperazino)-ethyl N-(2,3-dimethyl-5-oxo-1-phenyl-3Δ-pyrazolin-4-yl)-carbamate], the LD50 in series [1] was 400 mg/kg. The 50% effect level in series [2] (ED50) was put at a dose of 30 mg/kg. Further, the ED40 in series [3] was more than 100 mg/kg.

These data come from patent US4010161A, “Piperazinoethyl-N-(2,3-dimethyl-5-oxo-1-phenyl-3Δ-pyrazolin- 4-yl)carbamates” (Synthelabo, priority 1973, dated 1977).
